Reference: paper PMC7582707, “Synthesis and Properties of CurNQ for the Theranostic Application in Ovarian Cancer Intervention” (Molecules, 2020)
≈ marks a conversion by molar mass, not a printed value.

Assays:
[1] = tested on: OVCAR-5 cells; test: Nuclear morphology analysis by high content imaging (eccentricity, compactness, form factor); type: cell-based; conditions: 24 h; for form factor of nuclei: OVCAR-5, treatment greater than 50 µM
Protocol: (§1) Cells were grown until 80% confluency prior to utilization. Upon confluency, media was removed, and cells were washed twice in sterile PBS. Trypsin/EDTA was then added to the flasks and incubated at 37 °C for 5 min, allowing the cells to detach from the bottom of the flask. These cells were then collected and centrifuged. The pellet was resuspended, and the cells were counted using the trypan blue exclusion assay. A predetermined and equal number of cells were then added into each well of a 96-well plate. The cells were incubated overnight at 37 °C and at 5% CO2, allowing the cells to attach to the plates. […] Each treatment was performed in quintuplicate. Treatments occurred for 24 h. Subsequent to this time period, media was removed, and cells were fixed with 5% formaldehyde in PBS for 20 min. Next, cells were incubated for 15 min in a 1 µg/mL solution of DAPI. The plates were then washed several times with PBS to remove all residual DAPI and to reduce background fluorescence.

[2] = tested on: OVCAR-5; test: Cell viability / cytotoxicity by high content imaging (DAPI nuclei count); type: cell-based; conditions: for IC50: OVCAR-5, 24 h treatment
Protocol: (§2) The ovarian carcinoma cancer cell lines OVCAR-5 and SKOV3 were purchased from Fox Chase Cancer Facility, USA, Jerkitown, […]. The healthy fibroblast cell line NIH: 3T3 was utilized as a control. The cells were cultured in DMEM with the media being supplemented with 10% fetal bovine serum and 1% penicillin-streptomycin. Cells were incubated at 37 °C with 5% CO2. Upon the cells reaching 70–80% confluency, the cells were washed, and sub-cultured by harvesting using trypsin/EDTA.
as §1, with “fluorescence. All plates were stored in the dark. Plates were then run on the Logos Biosystem CELENA® X High Content Imaging System and analyses were performed using their proprietary software. IC50 values were calculated using a Prism Graph. Using the Logos Biosystem software, a pipeline was set up to determine the nuclei count, form factor, compactness and eccentricity. The following definitions were used:Eccentricity = ratio of the distance between the foci of the ellipse and its major axis length. Compactness = mean squared distance of the object’s pixels from the centroid divided by the area. Form Factor = 4 × π × Area/Perimeter2” for “fluorescence.”

[3] = tested on: SKOV3; test: as above; type: cell-based; conditions: for IC50: Homo sapiens, SK-OV-3, SKOV3, 24 h treatment
Protocol: as §2
as §1, with “fluorescence. All plates were stored in the dark. Plates were then run on the Logos Biosystem CELENA® X High Content Imaging System and analyses were performed using their proprietary software. IC50 values were calculated using a Prism Graph. Using the Logos Biosystem software, a pipeline was set up to determine the nuclei count, form factor, compactness and eccentricity. The following definitions were used:Eccentricity = ratio of the distance between the foci of the ellipse and its major axis length. Compactness = mean squared distance of the object’s pixels from the centroid divided by the area. Form Factor = 4 × π × Area/Perimeter2” for “fluorescence.”

[4] = tested on: NIH:3T3; test: Cell viability / cytotoxicity by high content imaging, healthy fibroblast control; type: cell-based; conditions: Mus musculus, NIH3T3; NIH:3T3 healthy fibroblast, 24 h treatment
Protocol: as §2
as §1, with “fluorescence. All plates were stored in the dark. Plates were then run on the Logos Biosystem CELENA® X High Content Imaging System and analyses were performed using their proprietary software. IC50 values were calculated using a Prism Graph. Using the Logos Biosystem software, a pipeline was set up to determine the nuclei count, form factor, compactness and eccentricity. The following definitions were used:Eccentricity = ratio of the distance between the foci of the ellipse and its major axis length. Compactness = mean squared distance of the object’s pixels from the centroid divided by the area. Form Factor = 4 × π × Area/Perimeter2” for “fluorescence.”

[5] = as above; type: cell-based; conditions: mouse, NIH:3T3 fibroblast cells
Protocol: as §2
as §1, with “fluorescence. All plates were stored in the dark. Plates were then run on the Logos Biosystem CELENA® X High Content Imaging System and analyses were performed using their proprietary software. IC50 values were calculated using a Prism Graph. Using the Logos Biosystem software, a pipeline was set up to determine the nuclei count, form factor, compactness and eccentricity. The following definitions were used:Eccentricity = ratio of the distance between the foci of the ellipse and its major axis length. Compactness = mean squared distance of the object’s pixels from the centroid divided by the area. Form Factor = 4 × π × Area/Perimeter2” for “fluorescence.”

[6] = Saturation solubility at different pH; type: physicochemical
Excerpt: Consequently, cancer targeting and specific release of an active agent at the tumor location is essential. Multiple tactics can be employed to achieve this. Herein, we exploited the acidification of the tumor microenvironment that accompanies malignant transformation for targeted detection and treatment. […] The slight acidification of the microenvironment surrounding a tumor is a hallmark feature of cancer and is termed the Warburg effect. Therefore, CurNQ can detect this change in pH associated with malignant transformation resulting from its pH specific solubility.
Figure 4 Fluorescence properties and pH specific properties of CurNQ. (A) Excitation and emission spectra of 1.5 µM solution of CurNQ. (B) Saturation solubility of a I.5 µM solution of CurNQ at pH 7.4 and 6.8.

With `O=C1C=C(Br)C(=O)c2ccccc21` [BrNQ, 2-bromo-1,4-naphthoquinone, reference compound] the “form factor of nuclei” value [1] was “large increase”, the viability at 20 µM ([2]; Homo sapiens, OVCAR-5, 24 h, read-out: cell viability) was under 10% and the IC50 ([2]; Homo sapiens) was 4.85 µM. The IC50 [3] was 2.74 µM, the IC50 [4] was 6.91 µM and the viability at 24 h ([5]; NIH:3T3, lowest viability reached) was under 15%.
Compound `COc1cc(/C=C/C(=O)CC(=O)/C=C/c2ccc(O)c(OC)c2)ccc1O` [CUR, diferuloylmethane, reference compound] has an IC50 ([2]; Homo sapiens) of 9.64 µM, an IC50 [3] of 4.79 µM and an IC50 [4] of 43.9 µM.
For `COc1cc(/C=C/C(=O)/C=C(O)/C=C/c2ccc(OC3=CC(=O)c4ccccc4C3=O)c(OC)c2)ccc1OC1=CC(=O)c2ccccc2C1=O` [CurNQ, 2,2′-((((1E,3Z,6E)-3-hydroxy-5-oxohepta-1,3,6-triene-1,7-diyl)bis(2-methoxy-4,1-phenylene))bis(oxy))bis(naphthalene-1,4-dione)], the eccentricity of nuclei ([1]; OVCAR-5, 5-100 µM) was “decreased in a dose-dependent manner”, the “form factor of nuclei” value [1] was “large increase” and the solubility ([6]; pH 6.8, aqueous buffer) was 20.7 µM (≈ 14.1 µg/mL). For the same compound, the solubility ([6]; pH 7.4, aqueous buffer) was 11.2 µM (≈ 7.59 µg/mL), the IC50 ([2]; Homo sapiens) was 4.05 µM and the cell viability ([2]; OVCAR-5, in vitro cytotoxicity assay) was “below 50%”. The cell viability ([2]; OVCAR-5, low concentrations, 24-h incubation) was “below 40%”, the IC50 [3] was 5.35 µM and the cell viability ([3]; SKOV3, in vitro cytotoxicity assay) was “below 50%”. For the same compound, the IC50 [4] was 65.5 µM and the viability at 24 h, 100 µM ([5]; NIH:3T3, 100 µM) was 44%.
